# Assays:
# [1] = Pharmacokinetic analysis, two-compartment model (PKSolver); assay type: in vivo, ICR mice
# Experimental: The data shown in Table 2 were applied to the program PKSolver. After a single oral administration of 200 mg/kg of the anxiolitic fraction of T. americana, the behavior of the concentration-time data allowed us to determine the main pharmacokinetic parameters under a two-compartment model (Table 3), and the same program provided the graphical behavior of the variables and the adjustment to the two-compartment model.
# To evaluate the suitability of the assay for the pharmacokinetic studies, 200 mg/kg of the active fraction was orally administered to the animals. Ten animals were used in each group at different times (0, 5, 10, 15, 30, 60, 120, 240, 480, 720, and 1440 min). Pharmacokinetic calculations were performed using the observed data. All data was subsequently processed using the PKSolver add-in program for Microsoft Excel written in Visual Basic for Applications. All values obtained were expressed in mean ± standard deviation.
# For the pharmacokinetic assay, the selection was made either from a one-compartment or a two-compartment model, with the use of both the Akaike information criterion (AIC) and the Schwarz criterion (SC). Using these two criteria, one can select which model is more suited to being adjusted, to the point where it reaches the lowest values of the AIC or SC criteria, which means that the chosen model is more parsimonious (less parameters required) and best fits the data (low error prediction).
# [2] = Plasma concentration after a single oral dose of the anxiolytic fraction (HPLC); assay type: in vivo, ICR mice; conditions: mouse, plasma, ICR mice, n = 10
# How it was run: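 Animals dosed orally with 200 mg/kg of active fraction; retro-orbital blood taken from separate groups of ten at 0–1440 min. Lyophilized plasma extracted in methanol and analysed by RP-18 HPLC with diode-array detection at 220 nm against a calibration curve; PK parameters from observed data, mean ± SD.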
# [3] = Stability of flavonoids and biotransformation products in mouse plasma under different handling conditions; assay type: in vitro ADME, mice; conditions: for Accuracy Bias 0 h / Observed Conc. 0 h / Accuracy Bias 8 h / Observed Conc. 8 h / Accuracy Bias 24 h / Observed Conc. 24 h: room temperature (25 °C); for Observed Conc. 0 h / Observed Conc. 8 h / Observed Conc. 24 h / Observed Conc. Autosampler (4 °C; 8 h) / Observed Conc. Long-term (−70 °C; 1 month): n = 6; for Accuracy Bias Autosampler (4 °C; 8 h) / Accuracy Bias Long-term (−70°C; 1 month) / Observed Conc. Autosampler (4 °C; 8 h) / Observed Conc. Long-term (−70 °C; 1 month): storage stability
# How it was run: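 Mouse plasma QC samples containing the flavonoids and their biotransformation products were tested for stability across storage and handling conditions, including long-term, autosampler and bench-top tests. Samples were extracted with methanol, filtered, and analyzed by HPLC on an RP-18e column with acetonitrile–water (55:45) at 1 mL/min and detection at λ = 220 nm. Results were compared against fresh QC samples; stability required deviation below 15%.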
# [4] = mouse, oral 200 mg/kg anxiolytic fraction, ICR mice plasma, two-compartment model
# [5] = oral 200 mg/kg anxiolytic fraction, ICR mice plasma, two-compartment model
# [6] = oral 200 mg/kg anxiolytic fraction, ICR mice plasma, two-compartment model, n = 10
# [7] = high nominal conc. (7.00; 44.37; 4.50; 31.25 µg/mL)
# [8] = low nominal conc. (1.75; 11.02; 1.12; 1.95 µg/mL)
# [9] = medium nominal conc. (3.50; 22.18; 2.24; 7.81 µg/mL)
smiles,measurement,setting,value
"O=C(O)Cc1ccc(O)c(O)c1 [DOPAC, 3,4-dihydroxyphenylacetic acid]","CL/F, times lower than m-HPAA",[1]; after oral administration,30 times
same,"CL/F, times lower than p-HPAA",[1]; after oral administration,20 times
same,AUC(0-inf),[1]; [4],3850 µg·h/mL
same,Cmax,[1]; [4],7180 ng/mL
same,Tmax,[1]; [4],0.215 h
same,AUC(0-t),"[1]; mouse, oral 200 mg/kg anxiolytic fraction, ICR mice plasma, two-compartment model, read-out: AUC0→1440 (converted)",146 µg·h/mL
same,MRT,"[1]; mouse, oral 200 mg/kg anxiolytic fraction, ICR mice plasma, two-compartment model, read-out: MRT (mean residence time) (converted)",625 h
same,k el,"[1]; mouse, oral 200 mg/kg anxiolytic fraction, ICR mice plasma, two-compartment model, read-out: k10 (apparent first-order elimination rate constant from the central compartment) (converted)",5.3e-07 s⁻¹
same,half-life,"[1]; mouse, oral 200 mg/kg anxiolytic fraction, ICR mice plasma, two-compartment model, read-out: t1/2β",434 h
same,CL/F (apparent clearance),[1]; [5],0.0008 (mg/Kg)/(μg/mL)/min
same,V/F (apparent volume of distribution),[1]; [5],27.21 (mg/Kg)/(µg/mL)
same,k12 (transfer rate constant central to peripheral compartment),[1]; [5],0.002 min⁻¹
same,k21 (transfer rate constant peripheral to central compartment),[1]; [5],0.0096 min⁻¹
same,ka (apparent first-order absorption rate constant),[1]; [5],0.43 min⁻¹
same,t1/2ka (absorption half time),[1]; [5],1.61 min
same,t1/2α,[1]; [5],0.9992 h
same,α,[1]; [5],0.01 min⁻¹
same,β,[1]; [5],2.66e-05 min⁻¹
same,"A (plasma concentration coefficient, central compartment)",[1]; [6],1.23 µg/mL
same,"B (plasma concentration coefficient, peripheral compartment)",[1]; [6],6.16 µg/mL
same,index: relation between rate constants of k12 with respect to k21,[1]; two-compartment model,0.20
same,concentration at 5 min,"[2]; 5 min after single oral dose of 200 mg/kg of the anxiolytic fraction, ND = not detected",6600 ± 430 ng/mL
same,concentration at 10 min,[2]; 10 min after single oral dose of 200 mg/kg of the anxiolytic fraction,6430 ± 350 ng/mL
same,concentration at 15 min,[2]; 15 min after single oral dose of 200 mg/kg of the anxiolytic fraction,7730 ± 610 ng/mL
same,concentration at 30 min,[2]; 30 min after single oral dose of 200 mg/kg of the anxiolytic fraction,7170 ± 520 ng/mL
same,concentration at 60 min,[2]; 60 min after single oral dose of 200 mg/kg of the anxiolytic fraction,6880 ± 430 ng/mL
same,concentration at 120 min,[2]; 120 min after single oral dose of 200 mg/kg of the anxiolytic fraction,6340 ± 410 ng/mL
same,concentration at 240 min,[2]; 240 min after single oral dose of 200 mg/kg of the anxiolytic fraction,6260 ± 320 ng/mL
same,concentration at 480 min,[2]; 480 min after single oral dose of 200 mg/kg of the anxiolytic fraction,6100 ± 340 ng/mL
same,concentration at 720 min,[2]; 720 min after single oral dose of 200 mg/kg of the anxiolytic fraction,6010 ± 540 ng/mL
same,concentration at 1440 min,[2]; 1440 min after single oral dose of 200 mg/kg of the anxiolytic fraction,5930 ± 490 ng/mL
same,Accuracy Bias 0 h,[3]; high nominal conc.,0.26%
same,Observed Conc. 0 h,"[3]; high nominal conc. (rutin 7.00; quercetin glucoside, quercitrin, tiliroside 44.37; kaempferol 4.50; m-HPAA, p-HPAA, DOPAC 31.25 µg/mL)",31.61 ± 0.26 µg/mL
same,Accuracy Bias 0 h,[3]; low nominal conc.,0.02%
same,Observed Conc. 0 h,"[3]; low nominal conc. (rutin 1.75; quercetin glucoside, quercitrin, tiliroside 11.02; kaempferol 1.12; m-HPAA, p-HPAA, DOPAC 1.95 µg/mL)",1.98 ± 0.020 µg/mL
same,Accuracy Bias 0 h,[3]; medium nominal conc.,0.03%
same,Observed Conc. 0 h,"[3]; medium nominal conc. (rutin 3.50; quercetin glucoside, quercitrin, tiliroside 22.18; kaempferol 2.24; m-HPAA, p-HPAA, DOPAC 7.81 µg/mL)",7.85 ± 0.032 µg/mL
same,Accuracy Bias 8 h,[3]; high nominal conc.,0.25%
same,Observed Conc. 8 h,[3]; [7],31.64 ± 0.24 µg/mL
same,Accuracy Bias 8 h,[3]; low nominal conc.,0.03%
same,Observed Conc. 8 h,[3]; [8],1.92 ± 0.02 µg/mL
same,Accuracy Bias 8 h,[3]; medium nominal conc.,0.03%
same,Observed Conc. 8 h,[3]; [9],7.86 ± 0.03 µg/mL
same,Accuracy Bias 24 h,[3]; high nominal conc.,0.19%
same,Observed Conc. 24 h,[3]; [7],31.53 ± 0.19 µg/mL
same,Accuracy Bias 24 h,[3]; low nominal conc.,0.03%
same,Observed Conc. 24 h,[3]; [8],1.91 ± 0.03 µg/mL
same,Accuracy Bias 24 h,[3]; medium nominal conc.,0.02%
same,Observed Conc. 24 h,[3]; [9],7.78 ± 0.02 µg/mL
same,Accuracy Bias Autosampler (4 °C; 8 h),[3]; high nominal conc.,2.23%
same,Accuracy Bias Long-term (−70°C; 1 month),[3]; high nominal conc.,2.11%
same,Observed Conc. Autosampler (4 °C; 8 h),[3]; [7],31.61 ± 0.19 µg/mL
same,Observed Conc. Long-term (−70 °C; 1 month),[3]; [7],31.53 ± 0.25 µg/mL
same,Accuracy Bias Autosampler (4 °C; 8 h),[3]; low nominal conc.,0.88%
same,Accuracy Bias Long-term (−70°C; 1 month),[3]; low nominal conc.,1.15%
same,Observed Conc. Autosampler (4 °C; 8 h),[3]; [8],1.91 ± 0.03 µg/mL
same,Observed Conc. Long-term (−70 °C; 1 month),[3]; [8],1.99 ± 0.03 µg/mL
same,Accuracy Bias Autosampler (4 °C; 8 h),[3]; medium nominal conc.,0.38%
same,Accuracy Bias Long-term (−70°C; 1 month),[3]; medium nominal conc.,0.58%
same,Observed Conc. Autosampler (4 °C; 8 h),[3]; [9],7.78 ± 0.02 µg/mL
same,Observed Conc. Long-term (−70 °C; 1 month),[3]; [9],7.85 ± 0.03 µg/mL

# — article PMC6152131, “Pharmacokinetic Study of Biotransformation Products from an Anxiolytic Fraction of Tilia americana” (Molecules : A Journal of Synthetic Chemistry and Natural …, 2017)
